Test results taken from the NIST ThermoML archive (doi:10.1016/j.jct.2008.09.021).
± gives the expanded uncertainty stated by the source.

Columns and labels:
[1] = refractive index (Na D-line) (dimensionless); settings: 298.15 K; 101.33 kPa; Liquid; Standard Abbe refractometry
[2] = Liquid; for mass density: 303.15 K, 101.33 kPa, Pycnometric method; for vapor or sublimation pressure: Ebulliometric method (Recirculating still)

| Compound | refractive index [1] | mass density [2] | vapor or sublimation pressure ([2]; 473.25 K) | vapor or sublimation pressure ([2]; 353.95 K) | vapor or sublimation pressure ([2]; 371.05 K) | vapor or sublimation pressure ([2]; 401.85 K) | vapor or sublimation pressure ([2]; 353.85 K) | vapor or sublimation pressure ([2]; 379.35 K) |
| --- | --- | --- | --- | --- | --- | --- | --- | --- |
| CN1CCCC1=O [N-methylpyrrolidone] | 1.4674 ± 0.0008 | 1023.4 ± 0.61 kg/m3 | 95.3 ± 1.9 kPa |  |  |  |  |  |
| CC(C)(C)O [2-methylpropan-2-ol] | 1.3851 ± 0.0013 | 776.16 ± 4.4 kg/m3 |  | 95.3 ± 2 kPa |  |  |  |  |
| CC(C)CCO [3-methylbutan-1-ol] | 1.4053 ± 0.0013 | 801.76 ± 4.7 kg/m3 |  |  |  | 95.3 ± 2 kPa |  |  |
| CC(C)CO [2-methyl-1-propanol] | 1.3939 ± 0.0013 | 794.34 ± 4.6 kg/m3 |  |  |  |  |  | 95.3 ± 2 kPa |

The remaining lines, values ahead:

| refractive index [1] | mass density [2] | vapor or sublimation pressure ([2]; 473.25 K) | vapor or sublimation pressure ([2]; 353.95 K) | vapor or sublimation pressure ([2]; 371.05 K) | vapor or sublimation pressure ([2]; 401.85 K) | vapor or sublimation pressure ([2]; 353.85 K) | vapor or sublimation pressure ([2]; 379.35 K) | Compound |
| --- | --- | --- | --- | --- | --- | --- | --- | --- |
| 1.3954 ± 0.0013 | 798.92 ± 4.7 kg/m3 |  |  | 95.3 ± 2 kPa |  |  |  | CCC(C)O (stereo not drawn) [butan-2-ol] |
| 1.375 ± 0.0013 | 776.88 ± 4.4 kg/m3 |  |  |  |  | 95.3 ± 2 kPa |  | CC(C)O [propan-2-ol] |
